Source: US20240287138A1, “CYCLIC PEPTIDES FOR INHIBITING TNF RECEPTOR 1 ACTIVITY” (Merck Sharp & Dohme LLC, priority 2023, published 2024)
Numbered stars: 1 amine (or outer) side, 2 acyl side, 3 side chain; on linkers, the order of the positions; unused ones are H or OH. Bridge positions count the residues as written; N and C are the ends. Square brackets hold non-standard residues; d marks the D form. Peptide text beside a SMILES is read from it. Trp(βS-Me,7-OMe) = COc1cccc2c([C@H](C)[C@H](N)C(=O)O)c[nH]c12; Ala(indazol-1-yl) = N[C@@H](Cn1ncc2ccccc21)C(=O)O; Trp(7-CN) = N#Cc1cccc2c(C[C@H](N)C(=O)O)c[nH]c12; Trp(7-Cl) = N[C@@H](Cc1c[nH]c2c(Cl)cccc12)C(=O)O; Phe(4-CONH2) = NC(=O)c1ccc(C[C@H](N)C(=O)O)cc1; Phe(4-COOH) = N[C@@H](Cc1ccc(C(=O)O)cc1)C(=O)O; 4Pal(3S-Me) = C[C@@H](c1ccncc1)[C@H](N)C(=O)O; Trp(7-aza) = N[C@@H](Cc1c[nH]c2ncccc12)C(=O)O; X48 = O=C([C@H](CC12CC(O)(C1)C2)N[*:1])[*:2]; X1 = O=C([C@@H]1CC[C@H](N[*:1])C1)[*:2]; X45 = O=C([C@H]1CC2(CC2)CN1[*:1])[*:2]; X35 = CC(C)(N)[C@H](N[*:1])C(=O)[*:2]; Pip(4-aza) = O=C(O)[C@@H]1CNCCN1; 4Pal = N[C@@H](Cc1ccncc1)C(=O)O; NMeE = CN[C@@H](CCC(=O)O)C(=O)O; dHyp = O=C(O)[C@H]1C[C@H](O)CN1; Aad = N[C@@H](CCCC(=O)O)C(=O)O; X36 = C[C@@H](C(=O)[*:1])[*:2]; Ahp(2) = CCCCC[C@H](N)C(=O)O; hSer = N[C@@H](CCO)C(=O)O; αMeS = C[C@](N)(CO)C(=O)O; Nle = CCCC[C@H](N)C(=O)O; Sar = CNCC(=O)O

Assays:
[1] = target: T1, TNFα-induced NF-κB signal transduction pathway (TNFR1 signaling) in THP-1 cells (Homo sapiens, UniProt P19438); experiment: THP-1 Lucia NF-κB reporter cell assay, inhibition of TNFα-induced NF-κB signaling; assay type: cell-based; details: THP-1 NF-κB Lucia reporter cells, 10 ng/mL TNFα, 16-18 h, secreted luciferase; read-out: THP-1 IC50
T1 sequence (P19438 30-455): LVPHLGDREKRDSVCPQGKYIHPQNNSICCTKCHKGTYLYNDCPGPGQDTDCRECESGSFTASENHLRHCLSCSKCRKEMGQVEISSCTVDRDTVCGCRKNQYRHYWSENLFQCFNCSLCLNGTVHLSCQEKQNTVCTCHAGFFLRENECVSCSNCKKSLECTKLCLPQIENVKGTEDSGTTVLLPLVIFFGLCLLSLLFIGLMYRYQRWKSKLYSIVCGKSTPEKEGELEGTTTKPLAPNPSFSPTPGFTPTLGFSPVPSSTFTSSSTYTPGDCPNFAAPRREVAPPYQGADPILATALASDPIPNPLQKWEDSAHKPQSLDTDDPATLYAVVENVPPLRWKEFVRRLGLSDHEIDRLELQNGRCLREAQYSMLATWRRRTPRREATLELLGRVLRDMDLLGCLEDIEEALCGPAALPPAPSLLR
Method in brief: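 IC50 from a 4-parameter logistic fit of secreted luciferase luminescence (QUANTI-Luc), normalised to min/max controls. Reporter THP-1 cells were exposed to peptides for 1 h at 37 °C before 10 ng/mL TNFα (final) was added overnight (16–18 h).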

[2] = target: T2, human soluble TNFR1 (sTNFR1) (Homo sapiens, UniProt P19438); experiment: Human sTNFR1-peptide displacement assay (LanthaScreen Eu TR-FRET binding assay)
T2 construct: made in house; host or cells: Sf21 (baculovirus)
T2 sequence (P19438 with tags, fused parts or gaps): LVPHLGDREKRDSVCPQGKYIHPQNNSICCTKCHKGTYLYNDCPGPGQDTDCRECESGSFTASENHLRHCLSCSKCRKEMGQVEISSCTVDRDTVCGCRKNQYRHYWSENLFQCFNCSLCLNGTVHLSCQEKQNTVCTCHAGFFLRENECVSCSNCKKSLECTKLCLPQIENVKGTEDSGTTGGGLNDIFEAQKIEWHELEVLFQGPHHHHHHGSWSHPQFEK
Method in brief: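 Readout is the 665/615 nm TR-FRET ratio (Eu anti-His donor, streptavidin-Alexa647 acceptor), normalized to DMSO and saturating displacer, fit by Morrison-based five-parameter logistic for Kd^app. His-tagged sTNFR1 (1-211) prebound to 100 nM biotinylated peptide SEQ ID NO.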

SMILES	IC50 [1] [nM]	Kd [2] [nM]	IC50 [2] [nM]
CCCCC[C@@H]1NC(=O)[C@@H]2CC[C@@H](C2)NC(=O)[C@H]([C@@H](C)c2c[nH]c3c(OC)cccc23)NC(=O)CN(C)C(=O)[C@H](Cc2ccc(C(N)=O)cc2)NC(=O)[C@H](Cc2ccc(C(N)=O)cc2)NC(=O)[C@](C)(CO)NC(=O)[C@H](Cc2c[nH]c3c(C#N)cccc23)NC(=O)[C@H](Cc2ccc(C(=O)O)cc2)NC(=O)[C@H](CC(N)=O)NC(=O)[C@H]2C[C@H](O)CN2C(=O)[C@H](Cc2c[nH]c3ccccc23)NC(=O)[C@H](CCCC(=O)O)NC(=O)[C@H]([C@@H](C)c2ccncc2)NC1=O [SEQ ID NO. 282] (cyclo([Aad]W[dHyp]N[Phe(4-COOH)][Trp(7-CN)][αMeS][Phe(4-CONH2)][Phe(4-CONH2)][Sar][Trp(βS-Me,7-OMe)][X1][Ahp(2)][4Pal(3S-Me)]))	0.9	0.13	
CCCCC[C@@H]1NC(=O)[C@@H]2CC[C@@H](C2)NC(=O)[C@H]([C@@H](C)c2c[nH]c3c(OC)cccc23)NC(=O)CN(C)C(=O)[C@H](Cc2ccc(C(N)=O)cc2)NC(=O)[C@H](Cc2ccc(C(N)=O)cc2)NC(=O)[C@](C)(CO)NC(=O)[C@H](Cc2c[nH]c3c(C#N)cccc23)NC(=O)[C@H](Cc2ccc(C(=O)O)cc2)NC(=O)[C@H](CC(N)=O)NC(=O)[C@H]2C[C@H](O)CN2C(=O)[C@H](Cc2c[nH]c3ccccc23)NC(=O)[C@H](CCOC)NC(=O)[C@H]([C@@H](C)c2ccncc2)NC1=O [SEQ ID NO. 154] (cyclo([Ahp(2)][4Pal(3S-Me)][hSer](Me)W[dHyp]N[Phe(4-COOH)][Trp(7-CN)][αMeS][Phe(4-CONH2)][Phe(4-CONH2)][Sar][Trp(βS-Me,7-OMe)][X1]))	1.2	0.17	
CCCC[C@@H]1NC(=O)CSC[C@@H](C(N)=O)NC(=O)[C@H]([C@@H](C)c2c[nH]c3c(OC)cccc23)NC(=O)CN(C)C(=O)[C@H](Cc2ccc(O)cc2)NC(=O)[C@H](Cc2ccc(C(=O)O)cc2)NC(=O)[C@](C)(CO)NC(=O)[C@H](Cc2c[nH]c3c(Cl)cccc23)NC(=O)[C@H](Cc2ccncc2)NC(=O)[C@H](CC(N)=O)NC(=O)[C@H](CCC(=O)O)N(C)C(=O)[C@H](Cn2ncc3ccccc32)NC(=O)[C@H]([C@@H](C)O)NC(=O)[C@H](CC23CC(O)(C2)C3)NC1=O [SEQ ID NO. 152] ({CH2CO}-[Nle][X48]T[Ala(indazol-1-yl)][NMeE]N[4Pal][Trp(7-Cl)][αMeS][Phe(4-COOH)]Y[Sar][Trp(βS-Me,7-OMe)]C-NH2; thioether N-14)	5.3	1.19	
CCCC[C@@H]1NC(=O)CSC[C@@H](C(N)=O)NC(=O)[C@H]([C@@H](C)c2c[nH]c3c(OC)cccc23)NC(=O)CN(C)C(=O)[C@H](Cc2ccc(O)cc2)NC(=O)[C@H](Cc2ccc(C(=O)O)cc2)NC(=O)[C@](C)(CO)NC(=O)[C@H](Cc2c[nH]c3c(Cl)cccc23)NC(=O)[C@H](Cc2ccncc2)NC(=O)[C@H](CC(N)=O)NC(=O)[C@H]2CC3(CC3)CN2C(=O)[C@H](Cc2c[nH]c3ccccc23)NC(=O)[C@@H]2CNCCN2C(=O)[C@H](Cc2ccncc2)NC1=O [SEQ ID NO. 167] ({CH2CO}-[Nle][4Pal][Pip(4-aza)]W[X45]N[4Pal][Trp(7-Cl)][αMeS][Phe(4-COOH)]Y[Sar][Trp(βS-Me,7-OMe)]C-NH2; thioether N-14)	2.6	0.48	
CCCC[C@@H]1NC(=O)[C@H](C)SC[C@@H](C(N)=O)NC(=O)[C@H]([C@@H](C)c2c[nH]c3c(OC)cccc23)NC(=O)CN(C)C(=O)[C@H](Cc2ccc(O)cc2)NC(=O)[C@H](Cc2ccc(C(N)=O)cc2)NC(=O)[C@](C)(CO)NC(=O)[C@H](Cc2c[nH]c3c(Cl)cccc23)NC(=O)[C@H](Cc2ccncc2)NC(=O)[C@H](CC(N)=O)NC(=O)[C@H](CCC(=O)O)N(C)C(=O)[C@H](Cc2c[nH]c3ncccc23)NC(=O)[C@H](C(C)(C)N)NC(=O)[C@H](Cc2ccncc2)NC1=O [SEQ ID NO. 273] ([Nle][4Pal][X35][Trp(7-aza)][NMeE]N[4Pal][Trp(7-Cl)][αMeS][Phe(4-CONH2)]Y[Sar][Trp(βS-Me,7-OMe)]C-NH2; linker N-14 via X36)	4.1	0.33	0.6
